Measurements: patent publication US10508109B2 (priority 2015, dated 2019)
Counter-ions that a name gives are not always drawn. Like-named read-outs stand apart in the source and are kept apart here.

Legend:
A549 = assay: Cell-based assay, anti-proliferative activity (Cell Counting Kit-8, 72 hours); conditions: Homo sapiens, read-out: A549 IC50
In short: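 Cells were seeded in 96-well plates and exposed to candidate inhibitors. Cellular growth was then determined with the colorimetric kit, and IC50 values were calculated from the growth data.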

SUV39H2 = SUV39H2 (Homo sapiens (Human), UniProt Q9H5I1); assay: biochemical; type: biochemical; conditions: 3H-SAM 100 nM, H3 Histone Peptide 350 nM, room temperature 3 hours
In short: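 Human SUV39H2, at a lot-specific concentration set by specific activity, was incubated with test compounds for 3 h at room temperature, then stopped with streptavidin SPA beads (50 μg/well final).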

[1] = A549 cells, 72 hours exposure, Cell Counting Kit-8

Sequence of SUV39H2 (Q9H5I1 whole entry): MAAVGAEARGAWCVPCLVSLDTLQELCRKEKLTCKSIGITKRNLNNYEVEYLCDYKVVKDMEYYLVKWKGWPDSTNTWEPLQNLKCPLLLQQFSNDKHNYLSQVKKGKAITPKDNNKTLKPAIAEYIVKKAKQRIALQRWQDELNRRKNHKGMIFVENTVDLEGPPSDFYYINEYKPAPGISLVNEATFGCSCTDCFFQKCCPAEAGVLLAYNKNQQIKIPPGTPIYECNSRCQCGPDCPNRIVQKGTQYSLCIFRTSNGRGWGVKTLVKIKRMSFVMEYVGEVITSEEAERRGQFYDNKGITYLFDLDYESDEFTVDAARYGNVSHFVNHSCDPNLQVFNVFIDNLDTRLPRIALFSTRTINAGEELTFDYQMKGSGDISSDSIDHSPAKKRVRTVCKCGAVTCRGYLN

Compound	IC50 (A549; [1]) [nM]	IC50 (SUV39H2) [nM]	IC50 (A549; A549, 72 h) [nM]
CNC1CCN(c2ccnc(N3CCN(c4ccn5cc(-c6cc(Cl)c(OC)cc6OC)nc5c4)CC3)n2)CC1 [Example 426, 1-(2-(4-(2-(5-chloro-2,4-dimethoxyphenyl)imidazo[1,2-a]pyridin-7-yl)piperazin-1-yl)pyrimidin-4-yl)-N-methylpiperidin-4-amine]	670	17.7	–
COc1cc(OC)c(-c2cn3ccc(N4CCN(c5ncc(N6CCOCC6)cn5)CC4)cc3n2)cc1Cl [Example 427, 4-(2-(4-(2-(5-chloro-2,4-dimethoxyphenyl)imidazo[1,2-a]pyridin-7-yl)piperazin-1-yl)pyrimidin-5-yl)morpholine]	820	25.1	–
CNC1CCCN(c2ncc(N3CCN(c4ccn5cc(-c6cc(Cl)c(OC)cc6OC)nc5c4)CC3)cn2)C1 (centres unmarked) [Example 428, 1-(5-(4-(2-(5-chloro-2,4-dimethoxyphenyl)imidazo[1,2-a]pyridin-7-yl)piperazin-1-yl)pyrimidin-2-yl)-N-methylpiperidin-3-amine]	770	14.3	–
COc1cc(OC)c(-c2cn3ccc(N4CCCN(C(C)=O)CC4)cc3n2)cc1Cl [Example 429, 1-(4-(2-(5-chloro-2,4-dimethoxyphenyl)imidazo[1,2-a]pyridin-7-yl)-1,4-diazepan-1-yl)ethanone]	10000	16.1	–
COc1cc(OC)c(-c2cn3ccc(N4CCN(c5ncc(N6CCN(C)CC6)cn5)CC4)cc3n2)cc1Cl [Example 430, 2-(5-chloro-2,4-dimethoxyphenyl)-7-(4-(5-(4-methylpiperazin-1-yl)pyrimidin-2-yl)piperazin-1-yl)imidazo[1,2-a]pyridine]	950	13.7	–
COc1cc(OC)c(-c2cn3ccc(N4CCN(c5nc(N)nc(N6CCCC6)n5)CC4)cc3n2)cc1Cl [Example 431, 4-(4-(2-(5-chloro-2,4-dimethoxyphenyl)imidazo[1,2-a]pyridin-7-yl)piperazin-1-yl)-6-(pyrrolidin-1-yl)-1,3,5-triazin-2-amine]	760	88.4	–
COc1cc(OCCCN(C)C)c(-c2cn3ccc(N4CC[C@H](N)C4)cc3n2)cc1Cl [Example 432, (S)-1-(2-(5-chloro-2-(3-(dimethylamino)propoxy)-4-methoxyphenyl)imidazo[1,2-a]pyridin-7-yl)pyrrolidin-3-amine]	710	31.8	–
COc1cc(OC)c(-c2cn3ccc(N[C@H]4C[C@H]5CC[C@@H](C4)N5Cc4ccccc4)cc3n2)cc1Cl [Example 433, N-((1R,3r,5S)-8-benzyl-8-azabicyclo[3.2.1]octan-3-yl)-2-(5-chloro-2,4-dimethoxyphenyl)imidazo[1,2-a]pyridin-7-amine]	820	57.6	–
COc1cc(OC)c(-c2cn3ccc(N4CCCN(CC5CCCCC5)CC4)cc3n2)cc1Cl [Example 435, 2-(5-chloro-2,4-dimethoxyphenyl)-7-(4-(cyclohexylmethyl)-1,4-diazepan-1-yl)imidazo[1,2-a]pyridine]	650	6.46	–
COc1cc(OC)c(-c2cn3ccc(N4CCN(c5nc(N)nc(N6CCC(N(C)C)C6)n5)CC4)cc3n2)cc1Cl (centres unmarked) [Example 436, 4-(4-(2-(5-chloro-2,4-dimethoxyphenyl)imidazo[1,2-a]pyridin-7-yl)piperazin-1-yl)-6-(3-(dimethylamino)pyrrolidin-1-yl)-1,3,5-triazin-2-amine]	650	11.7	–
COc1cc(OC)c(-c2cn3ccc(N4CCN(c5nccc(N6CCC(N)CC6)n5)CC4)cc3n2)cc1Cl [Example 437, 1-(2-(4-(2-(5-chloro-2,4-dimethoxyphenyl)imidazo[1,2-a]pyridin-7-yl)piperazin-1-yl)pyrimidin-4-yl)piperidin-4-amine]	740	15.9	–
COc1cc(OC)c(-c2cn3cc(Br)c(N4CC[C@H](NCc5ccncc5)C4)cc3n2)cc1Cl [Example 438, (S)-1-(6-bromo-2-(5-chloro-2,4-dimethoxyphenyl)imidazo[1,2-a]pyridin-7-yl)-N-(pyridin-4-ylmethyl)pyrrolidin-3-amine]	2400	23.1	–
COc1cc(OC)c(-c2cn3ccc(N4CCN(c5nc(N)nc(N(C)C)n5)CC4)cc3n2)cc1Cl [Example 440, 6-(4-(2-(5-chloro-2,4-dimethoxyphenyl)imidazo[1,2-a]pyridin-7-yl)piperazin-1-yl)-N^2,N^2-dimethyl-1,3,5-triazine-2,4-diamine]	620	35.8	–
COc1cc(OC)c(-c2cn3ccc(N4CCN(c5ncc(N6CCC(N)CC6)cn5)CC4)cc3n2)cc1Cl [Example 441, 1-(2-(4-(2-(5-chloro-2,4-dimethoxyphenyl)imidazo[1,2-a]pyridin-7-yl)piperazin-1-yl)pyrimidin-5-yl)piperidin-4-amine]	540	4.99	–
COc1cc(OC)c(-c2cn3ccc(N4CCCN(CC5CCCC5)CC4)cc3n2)cc1Cl [Example 442, 2-(5-chloro-2,4-dimethoxyphenyl)-7-(4-(cyclopentylmethyl)-1,4-diazepan-1-yl)imidazo[1,2-a]pyridine]	730	13.9	–
COc1cc(OC)c(-c2cn3ccc(N[C@H]4C[C@H]5CC[C@@H](C4)N5CC4CCCC4)cc3n2)cc1Cl [Example 443, 2-(5-chloro-2,4-dimethoxyphenyl)-N-((1R,3r,5S)-8-(cyclopentylmethyl)-8-azabicyclo[3.2.1]octan-3-yl)imidazo[1,2-a]pyridin-7-amine]	820	17.3	–
COc1cc(OC)c(-c2cn3ccc(N[C@H]4C[C@H]5CC[C@@H](C4)N5C(=O)OC(C)(C)C)cc3n2)cc1Cl [Example 444, (1R,3r,5S)-tert-butyl 3-((2-(5-chloro-2,4-dimethoxyphenyl)imidazo[1,2-a]pyridin-7-yl)amino)-8-azabicyclo[3.2.1]octane-8-carboxylate]	780	78	–
COc1cc(OC)c(-c2cn3cc(-c4ccc(C#N)cc4)c(N4CC[C@H](N)C4)cc3n2)cc1Cl [Example 445, (S)-4-(7-(3-aminopyrrolidin-1-yl)-2-(5-chloro-2,4-dimethoxyphenyl)imidazo[1,2-a]pyridin-6-yl)benzonitrile dihydrochloride]	–	85.9	940
COc1cc(OC)c(-c2cn3ccc(N4CCN(c5nc(N)nc(NC(C)(C)C)n5)CC4)cc3n2)cc1Cl [Example 446, N^2-(tert-butyl)-6-(4-(2-(5-chloro-2,4-dimethoxyphenyl)imidazo[1,2-a]pyridin-7-yl)piperazin-1-yl)-1,3,5-triazine-2,4-diamine]	430	97.4	–
COc1cc(OC)c(-c2cn3ccc(N[C@H]4C[C@H]5CC[C@@H](C4)N5CC4CCN(C(=O)OC(C)(C)C)CC4)cc3n2)cc1Cl [Example 447, tert-butyl 4-(((1R,3r,5S)-3-((2-(5-chloro-2,4-dimethoxyphenyl)imidazo[1,2-a]pyridin-7-yl)amino)-8-azabicyclo[3.2.1]octan-8-yl)methyl)piperidine-1-carboxylate]	440	85.2	–
COc1cc(OC)c(-c2cn3ccc(N[C@H]4C[C@H]5CC[C@@H](C4)N5Cc4ccncc4)cc3n2)cc1Cl [Example 448, 2-(5-chloro-2,4-dimethoxyphenyl)-N-((1R,3r,5S)-8-(pyridin-4-ylmethyl)-8-azabicyclo[3.2.1]octan-3-yl)imidazo[1,2-a]pyridin-7-amine]	340	22.6	–
COc1cc(OC)c(-c2cn3ccc(N4CCN(c5ncnc(N6CCOCC6)n5)CC4)cc3n2)cc1Cl [Example 449, 4-(4-(4-(2-(5-chloro-2,4-dimethoxyphenyl)imidazo[1,2-a]pyridin-7-yl)piperazin-1-yl)-1,3,5-triazin-2-yl)morpholine]	–	17.5	870
COc1cc(OC)c(-c2cn3ccc(N4CCN(c5ncnc(N(C)C)n5)CC4)cc3n2)cc1Cl [Example 450, 4-(4-(2-(5-chloro-2,4-dimethoxyphenyl)imidazo[1,2-a]pyridin-7-yl)piperazin-1-yl)-N,N-dimethyl-1,3,5-triazin-2-amine]	730	33.6	–
CNc1ncnc(N2CCN(c3ccn4cc(-c5cc(Cl)c(OC)cc5OC)nc4c3)CC2)n1 [Example 451, 4-(4-(2-(5-chloro-2,4-dimethoxyphenyl)imidazo[1,2-a]pyridin-7-yl)piperazin-1-yl)-N-methyl-1,3,5-triazin-2-amine]	460	17	–
COc1cc(OC)c(-c2cn3ccc(N[C@H]4C[C@H]5CC[C@@H](C4)N5CC(C)(C)C)cc3n2)cc1Cl [Example 452, 2-(5-chloro-2,4-dimethoxyphenyl)-N-((1R,3r,5S)-8-neopentyl-8-azabicyclo[3.2.1]octan-3-yl)imidazo[1,2-a]pyridin-7-amine]	830	42.6	–
COc1cc(OC)c(-c2cn3ccc(N4CCC(C(=O)NC5CCCCC5)CC4)cc3n2)cc1Cl [Example 453, 1-(2-(5-chloro-2,4-dimethoxyphenyl)imidazo[1,2-a]pyridin-7-yl)-N-cyclohexylpiperidine-4-carboxamide]	540	10.5	–
COc1cc(OC)c(-c2cn3ccc(N4CCC[C@H](NCC5CCN(C(=O)OC(C)(C)C)CC5)C4)cc3n2)cc1Cl [Example 454, (S)-tert-butyl 4-(((1-(2-(5-chloro-2,4-dimethoxyphenyl)imidazo[1,2-a]pyridin-7-yl)piperidin-3-yl)amino)methyl)piperidine-1-carboxylate]	760	27	–
COc1cc(OC)c(-c2cn3ccc(N4CCC[C@H](NCC5CCCCC5)C4)cc3n2)cc1Cl [Example 455, (S)-1-(2-(5-chloro-2,4-dimethoxyphenyl)imidazo[1,2-a]pyridin-7-yl)-N-(cyclohexylmethyl)piperidin-3-amine]	920	12.3	–
